Measured values published in patent US11781160B2, “Methods for the production of methacrylates” (priority 2018, dated 2023).

Key:
[1] = tested on: E. coli MG1655 soxR(R20H)acrR(V29G); test: Growth in MSX medium with 20% (v/v) BMA, double mutant; type: cell-based, Escherichia coli
[2] = tested on: E. coli BW25113 isolate 8-rob(R156H) rpoB(T1037P) torY(A87T) acrR(49Yfs); test: Growth kinetics of isolated strain 8 with 20% v/v BMA
[3] = tested on: gene transcription in strain 22; test: Transcriptome analysis with added BMA, strain 22
Description: (§1) Transcriptome analysis was carried out to characterize transcriptional activity in mutant microorganisms using standard methods.
(§2) Sample Preparation • 1) Streak strains onto fresh MSX agar (15 g/L) plates directly from the cryostocks and incubate overnight at 37° C. • 2) Isolate single colonies and inoculate pre-cultures in MSX, using 50 ml shake flasks. Incubate overnight at 37° C. and 250 rpm. • 3) Inoculate cultures in MSX to an initial OD600 of 0.05, using 250 mL pyrex shake flasks with 24/29 neck join. Incubate at 37° C. and 250 rpm. Do 4 biological replicates (3 replicates for sequencing plus one backup)—4 flasks per strain. • 4) Seal shake flasks with sterile Suba seals. To monitor OD, take samples using a sterile syringe and needle after first swabbing the Suba seals with 70% ethanol. Monitor OD. • 5) When OD reaches 0.3, collect first sample for RNA extraction (“before” sample) into a pre-chilled falcon. Keep samples on ice. • 6) Immediately after, add 20% (v/v) BMA. Re-incubate cultures. • 7) Quickly process the samples according to the RNeasy kit protocol, until step 6 of protocol 1. Always keep samples on ice and store it at −80° C. until further use, if possible, flash freeze in liquid nitrogen it before storing. • 8) One hour after the first sample collection/BMA addition, collect the second sample for RNA extraction (“after” sample). Proceed as explained before. • 9) Continue to monitor the OD until the cultures reach 24 h. • To summarise, each strain tested will have 6 samples to send for sequencing, 3 collected right before the addition and 3 collected one hour after, plus 1 “back-up” for before and after, in case something goes wrong during extraction (8 samples total). Besides the WT strain with the addition of BMA, samples were also collected from a WT culture with no BMA, one hour after reaching OD of 0.3, as a control.
(§3) Transcription was compared for a double mutant and the wild-type in the presence and absence of BMA relative to the level in the wild type in the absence of BMA. For the avoidance of doubt the level in the table is the ratio of the level in the strain under the BMA exposure relative to the level in the wild type in the absence of added BMA.

[4] = tested on: E. coli BW25113 isolate 3-rob(R156H) ilvN(C41Y) phoP(L11F) acrB(V448L) acrR(indels); test: Growth kinetics of isolated strain 3 with 20% v/v BMA
[5] = tested on: gene transcription in strain 2; test: Transcriptome analysis with added BMA, strain 2
Description: as §1, §2, §3

[6] = tested on: E. coli MG1655 soxR(R20H)acrR(T32fs); test: Growth in MSX medium with 20% (v/v) BMA, double mutant; type: cell-based, Escherichia coli
[7] = tested on: E. coli BW25113 isolate 20-marR(V84G) rpoC(R1075C) ompR(R15S) acrR(indels); test: Growth kinetics of isolated strain 20 with 20% v/v BMA
[8] = tested on: E. coli BW25113 isolate 22-rob(R156H) rpoB(T1037P) groL(P279L) acrR(49Yfs) 1197659(C > A); test: Growth kinetics of isolated strain 22 with 20% v/v BMA
[9] = tested on: E. coli MG1655 acrR(V29G); test: Growth in MSX medium with 20% (v/v) BMA, single mutation strain; type: cell-based, Escherichia coli; details: 20% (v/v) BMA added immediately after inoculation
[10] = tested on: E. coli BW25113 isolate 2-rob(R156H) rpoC(L361R) ilvN(C41Y) ygbK(A294E) IpxM(168_185del); test: Growth kinetics of isolated strain 2 with 20% v/v BMA
[11] = tested on: E. coli BW25113 isolate 23-soxR(R20L) rpoC(r1075C) 2133236( T> A) 3915915(T > G) acrR(indels); test: Growth kinetics of isolated strain 23 with 20% v/v BMA
[12] = tested on: gene transcription in strain 18; test: Transcriptome analysis with added BMA, strain 18
Description: as §1, §2, §3

[13] = 20% (v/v) BMA added during mid-exponential phase
[14] = 20% (v/v) BMA added immediately after inoculation

`C=C(C)C(=O)OCCCC` [BMA, butyl 2-methylprop-2-enoate] was tested, and the “Tolerance to BMA” value [1, 13] was “enhanced tolerance to BMA compared to the soxR(R20H) mutation alone”, the “Growth compared with the single mutant with the soxR mutation” value [1, 14] was “able to grow better than the single mutant” and the “Growth in the presence of BMA” value [1, 14] was “able to grow”. It also gave a Growth rate [2] of 0.712 ± 0.015 h⁻¹, a Lag time [2] of 5 h and a Max cell concentration [2] of 0.435 ± 0.010 g/L. For the same molecule, the “IdhA transcription level relative to wild type without BMA” value [3] was 25.80, the “acrA transcription level relative to wild type without BMA” value [3] was 7.44 and the “acrB transcription level relative to wild type without BMA” value [3] was 7.17. For the same molecule, the “adiY transcription level relative to wild type without BMA” value [3] was 23.19, the “ariR transcription level relative to wild type without BMA” value [3] was 12.95 and the “asr transcription level relative to wild type without BMA” value [3] was 225.15. For the same molecule, the “bssR transcription level relative to wild type without BMA” value [3] was 71.24, the “ibpA transcription level relative to wild type without BMA” value [3] was 70.31 and the “ibpB transcription level relative to wild type without BMA” value [3] was 107.99. The “narG transcription level relative to wild type without BMA” value [3] was 61.85, the “nirB transcription level relative to wild type without BMA” value [3] was 20.40 and the “nirD transcription level relative to wild type without BMA” value [3] was 26.97. For the same molecule, the “pspA transcription level relative to wild type without BMA” value [3] was 47.39, the “pspB transcription level relative to wild type without BMA” value [3] was 35.43 and the “pspD transcription level relative to wild type without BMA” value [3] was 38.90. The “pspc transcription level relative to wild type without BMA” value [3] was 39.73, the “raiA transcription level relative to wild type without BMA” value [3] was 52.61 and the “rmf transcription level relative to wild type without BMA” value [3] was 17.43. For the same molecule, the “soxS transcription level relative to wild type without BMA” value [3] was 3.66, the “spy transcription level relative to wild type without BMA” value [3] was 45.77 and the “ybfA transcription level relative to wild type without BMA” value [3] was 36.33. For the same molecule, the “ybhG transcription level relative to wild type without BMA” value [3] was 21.92, the “ybiH transcription level relative to wild type without BMA” value [3] was 16.75 and the “ydgU transcription level relative to wild type without BMA” value [3] was 94.74. The “yhjx transcription level relative to wild type without BMA” value [3] was 902.70, the “yibT transcription level relative to wild type without BMA” value [3] was 77.30 and the “ymgA transcription level relative to wild type without BMA” value [3] was 6.44. For the same molecule, the “ymgC transcription level relative to wild type without BMA” value [3] was 5.45, the “ynfM transcription level relative to wild type without BMA” value [3] was 61.15 and the “yohk transcription level relative to wild type without BMA” value [3] was 19.75. It also gave a Growth rate [4] of 0.566 ± 0.010 h⁻¹, a Lag time [4] of 4 h and a Max cell concentration [4] of 0.790 ± 0.076 g/L. The “IdhA transcription level relative to wild type without BMA” value [5] was 11.32, the “acrA transcription level relative to wild type without BMA” value [5] was 7.33 and the “acrB transcription level relative to wild type without BMA” value [5] was 6.68. The “adiY transcription level relative to wild type without BMA” value [5] was 5.37, the “ariR transcription level relative to wild type without BMA” value [5] was 35.30 and the “asr transcription level relative to wild type without BMA” value [5] was 95.27. The “bssR transcription level relative to wild type without BMA” value [5] was 15.30, the “ibpA transcription level relative to wild type without BMA” value [5] was 20.83 and the “ibpB transcription level relative to wild type without BMA” value [5] was 84.03. The “narG transcription level relative to wild type without BMA” value [5] was 11.38, the “nirB transcription level relative to wild type without BMA” value [5] was 8.77 and the “nirD transcription level relative to wild type without BMA” value [5] was 4.33. The “pspA transcription level relative to wild type without BMA” value [5] was 15.40, the “pspB transcription level relative to wild type without BMA” value [5] was 11.46 and the “pspD transcription level relative to wild type without BMA” value [5] was 11.22. The “pspc transcription level relative to wild type without BMA” value [5] was 11.88, the “raiA transcription level relative to wild type without BMA” value [5] was 14.09 and the “rmf transcription level relative to wild type without BMA” value [5] was 7.05. For the same molecule, the “soxS transcription level relative to wild type without BMA” value [5] was 4.10, the “spy transcription level relative to wild type without BMA” value [5] was 22.92 and the “ybfA transcription level relative to wild type without BMA” value [5] was 18.45. For the same molecule, the “ybhG transcription level relative to wild type without BMA” value [5] was 6.87, the “ybiH transcription level relative to wild type without BMA” value [5] was 8.65 and the “ydgU transcription level relative to wild type without BMA” value [5] was 31.80. For the same molecule, the “yhjx transcription level relative to wild type without BMA” value [5] was 7.35, the “yibT transcription level relative to wild type without BMA” value [5] was 36.87 and the “ymgA transcription level relative to wild type without BMA” value [5] was 35.59. For the same molecule, the “ymgC transcription level relative to wild type without BMA” value [5] was 42.36, the “ynfM transcription level relative to wild type without BMA” value [5] was 14.42 and the “yohk transcription level relative to wild type without BMA” value [5] was 8.45. For the same molecule, the “Tolerance to BMA” value [6, 13] was “enhanced tolerance to BMA compared to the soxR(R20H) mutation alone”, the “Growth compared with the single mutant with the soxR mutation” value [6, 14] was “able to grow better than the single mutant” and the “Growth in the presence of BMA” value [6, 14] was “able to grow”. It also gave a Growth rate [7] of 0.719 ± 0.041 h⁻¹, a Lag time [7] of 5 h and a Max cell concentration [7] of 0.589 ± 0.012 g/L. The Growth rate [8] was 0.701 ± 0.015 h⁻¹, the Lag time [8] was 4 h and the Max cell concentration [8] was 0.523 ± 0.024 g/L. The “Growth in the presence of BMA” value [9] was “able to grow”, the Growth rate [10] was 0.532 ± 0.028 h⁻¹ and the Lag time [10] was 6 h. It also gave a Max cell concentration [10] of 0.651 ± 0.052 g/L, a Growth rate [11] of 0.722 ± 0.019 h⁻¹ and a Lag time [11] of 4 h. The Max cell concentration [11] was 0.529 ± 0.023 g/L, the “IdhA transcription level relative to wild type without BMA” value [12] was 56.74 and the “acrA transcription level relative to wild type without BMA” value [12] was 6.47. The “acrB transcription level relative to wild type without BMA” value [12] was 10.12, the “adiY transcription level relative to wild type without BMA” value [12] was 21.13 and the “ariR transcription level relative to wild type without BMA” value [12] was 25.19. For the same molecule, the “asr transcription level relative to wild type without BMA” value [12] was 74.22, the “bssR transcription level relative to wild type without BMA” value [12] was 134.14 and the “ibpA transcription level relative to wild type without BMA” value [12] was 74.55. The “ibpB transcription level relative to wild type without BMA” value [12] was 158.35, the “narG transcription level relative to wild type without BMA” value [12] was 25.46 and the “nirB transcription level relative to wild type without BMA” value [12] was 23.98. The “nirD transcription level relative to wild type without BMA” value [12] was 34.98, the “pspA transcription level relative to wild type without BMA” value [12] was 20.71 and the “pspB transcription level relative to wild type without BMA” value [12] was 20.94. The “pspD transcription level relative to wild type without BMA” value [12] was 18.60, the “pspc transcription level relative to wild type without BMA” value [12] was 21.37 and the “raiA transcription level relative to wild type without BMA” value [12] was 44.16. For the same molecule, the “rmf transcription level relative to wild type without BMA” value [12] was 20.96, the “soxS transcription level relative to wild type without BMA” value [12] was 1.17 and the “spy transcription level relative to wild type without BMA” value [12] was 4.36. For the same molecule, the “ybfA transcription level relative to wild type without BMA” value [12] was 24.95, the “ybhG transcription level relative to wild type without BMA” value [12] was 18.85 and the “ybiH transcription level relative to wild type without BMA” value [12] was 12.75. The “ydgU transcription level relative to wild type without BMA” value [12] was 28.47, the “yhjx transcription level relative to wild type without BMA” value [12] was 251.44 and the “yibT transcription level relative to wild type without BMA” value [12] was 83.81. For the same molecule, the “ymgA transcription level relative to wild type without BMA” value [12] was 11.97, the “ymgC transcription level relative to wild type without BMA” value [12] was 12.62 and the “ynfM transcription level relative to wild type without BMA” value [12] was 55.40. The “yohk transcription level relative to wild type without BMA” value [12] was 14.54.
